22 molecules from patent publication US20080221086A1, “Novel Inhibitors of Glutaminyl Cyclase” (PROBIODRUG AG, priority 2006, published 2008) can be followed below.

Like-named read-outs stand apart in the source and are kept apart here.

In data set [1] the target is hQC (Homo sapiens, UniProt Q16769). As to the kind of experiment: Fluorometric assay of glutaminyl cyclase (QC) inhibition, H-Gln-βNA or H-Gln-AMC substrate. The class given is biochemical. An outline of the steps: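 Fluorometric coupled assays at 30° C in Tris/HCl pH 8.0 with EDTA and pyroglutamyl aminopeptidase used either 0.2 mM H-Gln-βNA (320/410 nm) or H-Gln-AMC (380/460 nm), started by QC. Screening used 4 mM inhibitor at substrate 1 KM. Ki came from fitting progress curves to competitive inhibition.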

Setting [2] is: compound from preparative synthesis, purified by chromatography, fluorescent assay, read-out: IC50 hQC.

Sequence of hQC (Q16769 29-361): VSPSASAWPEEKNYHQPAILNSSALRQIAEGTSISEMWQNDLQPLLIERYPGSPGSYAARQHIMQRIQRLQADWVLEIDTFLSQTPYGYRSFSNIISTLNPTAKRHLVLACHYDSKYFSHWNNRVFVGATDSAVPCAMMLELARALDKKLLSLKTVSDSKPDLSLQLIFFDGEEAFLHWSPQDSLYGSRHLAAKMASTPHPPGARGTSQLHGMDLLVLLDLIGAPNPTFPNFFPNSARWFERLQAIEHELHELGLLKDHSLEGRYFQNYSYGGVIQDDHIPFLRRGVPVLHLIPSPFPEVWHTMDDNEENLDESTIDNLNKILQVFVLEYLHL

On to `O=C1N/C(=N\C2CCCC2)C(c2ccc3[nH]ccc3c2)N1c1ccc2[nH]cnc2c1` (centres unmarked) [Compound 226, 1-(1H-Benzoimidazol-5-yl)-4-(cyclopentylimino)-5-(1H-indol-5-yl)-imidazolidin-2-one], for which the melting point (usually the temperature of the solid-liquid transition) was determined as 210 °C. Moreover, the IC50 (as a rule, the midpoint of a concentration-inhibition curve) in data set [1] (setting [2]) is 34.5 nM. Besides, the IC50 in data set [1] (read-out: IC50) is 4 nM.
Taken in the same sequence, the figures for `O=C1N/C(=N/Cc2ccccc2)C(c2ccc(Br)cc2)N1c1ccc2[nH]cnc2c1` (centres unmarked) [Compound 216, 1-(1H-Benzoimidazol-5-yl)-4-benzylimino-5-(4-bromo-phenyl)-imidazolidin-2-one] were 244 °C, 22 nM and 4 nM.
Turning to `O=C1N/C(=N\C2CCCCC2)C(c2ccc(Br)cc2)N1c1ccc2nc[nH]c2c1` (centres unmarked) [Compound 199, 1-(1H-Benzoimidazol-5-yl)-5-(4-bromo-phenyl)-4-(cyclohexylimino)-imidazolidin-2-one], the melting point amounted to 205 °C. Moreover, the IC50 in data set [1] (setting [2]) was 23.5 nM. Besides, the IC50 in data set [1] (read-out: IC50) came to 4 nM.
Consider `O=C1N/C(=N\CCC(c2ccccc2)c2ccccc2)C(c2ccccc2F)N1CCCn1ccnc1` (centres unmarked) [Compound 112, 4-3,3-Diphenyl-propylimino-5-(2-fluoro-phenyl)-1-(3-imidazol-1-yl-propyl)-imidazolidin-2-one], for which, in data set [1] (read-out: IC50), the IC50 is 6700 nM.
The same measure, in the same setting: the value for `O=C1N/C(=N/CCc2c[nH]c3ccccc23)C(C2CC2)N1CCCn1ccnc1` (centres unmarked) [Compound 57, 5-Cyclopropyl-1-(3-imidazol-1-yl-propyl)-4-2-(1H-indol-3-yl)-ethylimino-imidazolidin-2-one] was 5800 nM; that for `CCCC1/C(=N\CCC(c2ccccc2)c2ccccc2)NC(=O)N1CCCn1ccnc1` (centres unmarked) [Compound 104, 4-3,3-Diphenyl-propylimino-1-(3-imidazol-1-yl-propyl)-5-propyl-imidazolidin-2-one] was 9400 nM.
Regarding `O=C1N/C(=N\C2CCCCC2)C(c2cc3c(cc2Br)OCO3)N1c1ccc2nc[nH]c2c1` (centres unmarked) [Compound 196, 1-(3H-Benzoimidazol-5-yl)-5-(6-bromo-benzo1,3-dioxol-5-yl)-4-cyclohexylimino-imidazolidin-2-one], the IC50 in data set [1] (read-out: IC50) came to 4 nM.
The same measure, in the same setting: the value for `O=C1N/C(=N\c2ccc3c(c2)OCCO3)C(c2cc(F)cc(F)c2)N1CCCn1ccnc1` (centres unmarked) [Compound 32, 5-(3,5-Difluoro-phenyl)-4-2,3-dihydro-benzo1,4dioxin-6-ylimino-1-(3-imidazol-1-yl-propyl)-imidazolidin-2-one] was 6700 nM.
For `Cc1ccc(C2/C(=N/C(C)(C)CC(C)(C)C)NC(=S)N2c2ccc3nc[nH]c3c2)c(C)c1` (centres unmarked) [Compound 332, 1-(3H-Benzoimidazol-5-yl)-5-(2,4-dimethyl-phenyl)-4-1,1,3,3-tetramethyl-butylimino-imidazolidine-2-thione], the IC50 in data set [1] (read-out: IC50) is 9400 nM.
Consider `CC(/N=C1\NC(=O)N(c2ccc3[nH]cnc3c2)C1c1ccccc1C(F)(F)F)C(C)(C)C` (centres unmarked) [Compound 138, 1-(1H-Benzoimidazol-5-yl)-5-(2-trifluoromethyl-phenyl)-4-1,2,2-trimethyl-propylimino-imidazolidin-2-one], for which the results for the IC50 in data set [1] (setting [2]) and in data set [1] (read-out: IC50) were 1230 nM and 4 nM, respectively.
For `O=C1N/C(=N\CCCc2ccccc2)C(c2coc3ccccc3c2=O)N1c1ccc2[nH]cnc2c1` (centres unmarked) [Compound 209, 1-(1H-Benzoimidazol-5-yl)-5-(4-oxo-4H-chromen-3-yl)-4-3-phenyl-propylimino-imidazolidin-2-one], the IC50 in data set [1] (read-out: IC50) came out at 1300 nM.
Same read-out and setting: the value for `O=C1N/C(=N\C2CCCCCC2)C(c2cc(Br)cc(Br)c2)N1c1ccc2nc[nH]c2c1` (centres unmarked) [Compound 301, 1-(3H-Benzoimidazol-5-yl)-4-cycloheptylimino-5-(3,5-dibromo-phenyl)-imidazolidin-2-one] was 4 nM; that for `O=C1N/C(=N\c2ccc3c(c2)OCCO3)C(c2ccc3c(c2)OCCO3)N1c1ccc2[nH]cnc2c1` (centres unmarked) [Compound 235, 1-(1H-Benzoimidazol-5-yl)-5-(2,3-dihydro-benzo1,4dioxin-6-yl)-4-2,3-dihydro-benzo1,4dioxin-6-ylimino-imidazolidin-2-one] was 4 nM; that for `O=c1c(C2/C(=N/Cc3ccccc3)NC(=S)N2c2ccc3[nH]cnc3c2)coc2ccccc12` (centres unmarked) [Compound 124, 3-{3-(1H-Benzoimidazol-5-yl)-5-benzylimino-2-thioxo-imidazolidin-4-yl}-chromen-4-one] was 3100 nM.
Still for that read-out and setting: next, `O=C1N/C(=N/C2CC2)C(c2ccc(Br)cc2)N1c1ccc2nc[nH]c2c1` (centres unmarked) [Compound 310, 1-(3H-Benzoimidazol-5-yl)-5-(4-bromo-phenyl)-4-cyclopropylimino-imidazolidin-2-one]: 400 nM; `S=C1N/C(=N/Cc2ccccc2)C(c2cccc(Br)c2)N1c1ccc2[nH]cnc2c1` (centres unmarked) [Compound 261, 1-(1H-Benzoimidazol-5-yl)-4-benzylimino-5-(3-bromo-phenyl)-imidazolidine-2-thione]: 6700 nM; `O=C1N/C(=N\C2CCCC2)C(c2ccc(Cl)c(F)c2)N1c1ccc2[nH]cnc2c1` (centres unmarked) [Compound 318, 1-(1H-Benzoimidazol-5-yl)-5-(4-chloro-3-fluoro-phenyl)-4-cyclopentylimino-imidazolidin-2-one]: 4 nM.
`O=C1N/C(=N\C2CCCC2)C(c2cc(F)cc(F)c2)N1c1ccc2[nH]cnc2c1` (centres unmarked) [Compound 244, 1-(1H-Benzoimidazol-5-yl)-4-cyclopentylimino-5-(3,5-difluoro-phenyl)-imidazolidin-2-one]: in data set [1] (read-out: IC50), the IC50 amounted to 400 nM.
Same read-out and setting: next, `CCCCC1/C(=N\C)NC(=O)N1CCCn1ccnc1` (centres unmarked) [Compound 16, 5-Butyl-1-(3-imidazol-1-yl-propyl)-4-methylimino-imidazolidin-2-one]: 7600 nM; `S=C1N/C(=N/Cn2nnc3ccccc32)C(c2ccc3c(c2)OCCO3)N1c1ccc2[nH]cnc2c1` (centres unmarked) [Compound 217, 1-(1H-Benzoimidazol-5-yl)-4-benzotriazol-1-ylmethylimino-5-(2,3-dihydro-benzo1,4dioxin-6-yl)-imidazolidine-2-thione]: 400 nM; `O=C(C/N=C1\NC(=S)N(c2ccc3[nH]cnc3c2)C1c1cc(Br)cc(Br)c1)N1CCSCC1` (centres unmarked) [Compound 125, 2-(1-(1H-benzo[d]imidazol-5-yl)-5-(3,5-dibromophenyl)-2-thioxoimidazolidin-4-ylideneamino)-1-thiomorpholinoethan-one]: 2200 nM.
On to `C/N=C1\NC(=O)N(c2ccc3[nH]cnc3c2)C1c1coc2ccc(C)cc2c1=O` (centres unmarked) [Compound 328, 1-(1H-Benzoimidazol-5-yl)-4-methylimino-5-(6-methyl-4-oxo-4H-chromen-3-yl)-imidazolidin-2-one], for which, in data set [1] (read-out: IC50), the IC50 stood at 1300 nM.
